Test results taken from the kinase profiling compilation of Christmann-Franck et al. (2016).
Where “and” joins values, the source holds several entries; their conditions need not be identical. Equal entries are not always repeated.

Experiments:
[1] = target: EPHA2 (human) (UniProt P29317)
[2] = target: BRSK2 (human) (UniProt Q8IWQ3)
[3] = target: PRKCZ (human) (UniProt Q05513)
[4] = target: MKNK1 (human) (UniProt Q9BUB5)
[5] = target: MAPK8 (human) (UniProt P45983)
[6] = target: MAPK15 (human) (UniProt Q8TD08)
[7] = target: MAPK1 (human) (UniProt P28482)
[8] = target: SRPK1 (human) (UniProt Q96SB4)
[9] = target: PAK6 (human) (UniProt Q9NQU5)
[10] = test system: LCK (mouse); conditions: accession and sequence are those of the human protein
[11] = test system: RPS6KB1 (human), P23443 [T412E]
[12] = target: MAP2K1 (human) (UniProt Q02750)
[13] = target: CAMKK2 (human) (UniProt Q96RR4)
[14] = target: RPS6KA1 KD1 KD2 (human) (UniProt Q15418)
[15] = target: MAPK11 (human) (UniProt Q15759)
[16] = target: EEF2K (human) (UniProt O00418)
[17] = target: CSNK2A1 (human) (UniProt P68400)
[18] = test system: ROCK2 (rat); conditions: accession and sequence are those of the human protein
[19] = target: PHKG1 (human) (UniProt Q16816)
[20] = target: PAK4 (human) (UniProt O96013)
[21] = target: MARK3 (human) (UniProt P27448)
[22] = target: YES1 (human) (UniProt P07947)
[23] = target: PDPK1 (human) (UniProt O15530)
[24] = target: MAPKAPK2 (human) (UniProt P49137)
[25] = target: PLK1 (human) (UniProt P53350)
[26] = target: FGFR1 (human) (UniProt P11362)
[27] = target: MAPK9 (human) (UniProt P45984)
[28] = target: PIM1 (human) (UniProt P11309)
[29] = target: CSK (human) (UniProt P41240)
[30] = target: IKBKE (human) (UniProt Q14164)
[31] = target: PRKCA (human) (UniProt P17252)
[32] = target: FLT1 (human) (UniProt P17948)
[33] = target: RPS6KA5 KD1 KD2 (human) (UniProt O75582)
[34] = target: CSNK1D (human) (UniProt P48730)

Sequence of PDPK1 (human) (O15530 whole entry, looked up): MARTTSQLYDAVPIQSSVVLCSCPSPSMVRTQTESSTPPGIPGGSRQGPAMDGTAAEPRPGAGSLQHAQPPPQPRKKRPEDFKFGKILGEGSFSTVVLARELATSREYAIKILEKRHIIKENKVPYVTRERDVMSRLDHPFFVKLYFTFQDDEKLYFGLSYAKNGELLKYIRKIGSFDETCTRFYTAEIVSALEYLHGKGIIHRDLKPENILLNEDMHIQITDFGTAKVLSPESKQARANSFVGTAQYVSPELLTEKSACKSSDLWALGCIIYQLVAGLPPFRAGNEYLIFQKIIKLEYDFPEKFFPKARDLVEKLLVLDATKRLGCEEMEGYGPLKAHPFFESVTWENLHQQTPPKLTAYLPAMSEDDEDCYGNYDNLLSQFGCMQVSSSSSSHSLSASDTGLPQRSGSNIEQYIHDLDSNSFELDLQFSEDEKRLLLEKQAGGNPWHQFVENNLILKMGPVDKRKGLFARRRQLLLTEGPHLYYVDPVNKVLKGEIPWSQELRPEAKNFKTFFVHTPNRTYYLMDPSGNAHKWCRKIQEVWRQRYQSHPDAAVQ
Sequence of CSNK2A1 (human) (P68400 whole entry, looked up): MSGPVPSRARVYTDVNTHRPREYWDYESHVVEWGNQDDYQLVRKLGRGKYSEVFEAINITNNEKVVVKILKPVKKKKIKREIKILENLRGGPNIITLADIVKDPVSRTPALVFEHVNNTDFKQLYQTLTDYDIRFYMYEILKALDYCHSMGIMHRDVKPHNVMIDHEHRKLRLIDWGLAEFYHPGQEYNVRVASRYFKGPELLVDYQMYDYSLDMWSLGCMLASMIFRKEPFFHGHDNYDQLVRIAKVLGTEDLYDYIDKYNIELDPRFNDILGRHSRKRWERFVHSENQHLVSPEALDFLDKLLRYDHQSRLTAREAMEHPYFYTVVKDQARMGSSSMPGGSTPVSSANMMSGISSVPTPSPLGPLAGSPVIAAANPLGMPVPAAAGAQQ
Sequence of CAMKK2 (human) (Q96RR4 whole entry, looked up): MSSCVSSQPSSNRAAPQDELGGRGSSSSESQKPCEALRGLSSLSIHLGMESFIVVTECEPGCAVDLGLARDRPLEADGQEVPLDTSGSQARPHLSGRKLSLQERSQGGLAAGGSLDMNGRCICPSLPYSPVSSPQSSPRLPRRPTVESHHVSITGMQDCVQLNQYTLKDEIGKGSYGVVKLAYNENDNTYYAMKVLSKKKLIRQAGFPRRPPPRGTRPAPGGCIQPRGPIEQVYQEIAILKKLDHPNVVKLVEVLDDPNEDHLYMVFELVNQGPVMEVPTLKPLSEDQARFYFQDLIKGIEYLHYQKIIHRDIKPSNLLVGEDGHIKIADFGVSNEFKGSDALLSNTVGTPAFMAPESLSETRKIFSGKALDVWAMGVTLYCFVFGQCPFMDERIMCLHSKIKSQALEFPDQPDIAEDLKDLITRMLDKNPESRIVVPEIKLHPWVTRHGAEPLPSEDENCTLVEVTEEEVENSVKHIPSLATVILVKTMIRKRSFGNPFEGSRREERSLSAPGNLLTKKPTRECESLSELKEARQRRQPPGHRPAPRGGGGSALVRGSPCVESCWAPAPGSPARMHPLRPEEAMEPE
Sequence of IKBKE (human) (Q14164 whole entry, looked up): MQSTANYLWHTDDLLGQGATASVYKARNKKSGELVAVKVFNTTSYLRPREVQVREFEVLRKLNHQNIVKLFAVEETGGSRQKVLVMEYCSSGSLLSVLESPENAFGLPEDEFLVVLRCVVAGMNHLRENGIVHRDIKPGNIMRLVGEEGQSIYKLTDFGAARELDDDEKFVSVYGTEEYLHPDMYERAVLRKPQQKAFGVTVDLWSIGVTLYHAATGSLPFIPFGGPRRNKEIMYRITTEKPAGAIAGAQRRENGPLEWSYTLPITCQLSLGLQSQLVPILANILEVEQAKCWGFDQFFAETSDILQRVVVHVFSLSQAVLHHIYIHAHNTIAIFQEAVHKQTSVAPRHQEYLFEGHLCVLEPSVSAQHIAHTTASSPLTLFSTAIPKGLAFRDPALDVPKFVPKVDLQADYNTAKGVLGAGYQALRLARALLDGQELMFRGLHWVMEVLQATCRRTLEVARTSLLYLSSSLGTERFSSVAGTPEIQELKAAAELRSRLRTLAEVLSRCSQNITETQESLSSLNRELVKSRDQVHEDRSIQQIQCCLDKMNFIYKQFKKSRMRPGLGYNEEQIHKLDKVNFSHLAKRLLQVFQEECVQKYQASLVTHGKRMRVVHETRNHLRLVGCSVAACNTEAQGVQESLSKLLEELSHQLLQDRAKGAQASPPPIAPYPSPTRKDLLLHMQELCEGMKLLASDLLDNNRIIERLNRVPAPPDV
Sequence of MARK3 (human) (P27448 whole entry, looked up): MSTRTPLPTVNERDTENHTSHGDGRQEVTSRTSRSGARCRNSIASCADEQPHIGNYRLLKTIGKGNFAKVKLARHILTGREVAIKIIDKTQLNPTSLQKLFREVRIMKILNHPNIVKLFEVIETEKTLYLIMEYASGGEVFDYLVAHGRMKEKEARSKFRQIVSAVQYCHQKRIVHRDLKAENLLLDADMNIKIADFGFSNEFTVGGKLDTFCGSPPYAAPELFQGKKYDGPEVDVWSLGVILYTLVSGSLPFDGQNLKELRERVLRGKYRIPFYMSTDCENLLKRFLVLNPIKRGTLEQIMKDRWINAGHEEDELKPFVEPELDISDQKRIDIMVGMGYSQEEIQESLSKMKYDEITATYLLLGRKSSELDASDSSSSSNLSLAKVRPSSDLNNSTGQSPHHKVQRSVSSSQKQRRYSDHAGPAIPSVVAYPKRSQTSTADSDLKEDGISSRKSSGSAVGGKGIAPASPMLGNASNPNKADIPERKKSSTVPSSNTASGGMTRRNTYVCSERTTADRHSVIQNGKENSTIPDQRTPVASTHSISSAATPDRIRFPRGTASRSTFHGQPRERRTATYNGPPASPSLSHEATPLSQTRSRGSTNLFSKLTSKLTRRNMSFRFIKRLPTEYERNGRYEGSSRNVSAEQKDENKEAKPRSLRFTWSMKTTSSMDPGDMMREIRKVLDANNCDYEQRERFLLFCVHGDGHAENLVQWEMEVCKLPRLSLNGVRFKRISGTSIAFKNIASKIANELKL
Sequence of PLK1 (human) (P53350 whole entry, looked up): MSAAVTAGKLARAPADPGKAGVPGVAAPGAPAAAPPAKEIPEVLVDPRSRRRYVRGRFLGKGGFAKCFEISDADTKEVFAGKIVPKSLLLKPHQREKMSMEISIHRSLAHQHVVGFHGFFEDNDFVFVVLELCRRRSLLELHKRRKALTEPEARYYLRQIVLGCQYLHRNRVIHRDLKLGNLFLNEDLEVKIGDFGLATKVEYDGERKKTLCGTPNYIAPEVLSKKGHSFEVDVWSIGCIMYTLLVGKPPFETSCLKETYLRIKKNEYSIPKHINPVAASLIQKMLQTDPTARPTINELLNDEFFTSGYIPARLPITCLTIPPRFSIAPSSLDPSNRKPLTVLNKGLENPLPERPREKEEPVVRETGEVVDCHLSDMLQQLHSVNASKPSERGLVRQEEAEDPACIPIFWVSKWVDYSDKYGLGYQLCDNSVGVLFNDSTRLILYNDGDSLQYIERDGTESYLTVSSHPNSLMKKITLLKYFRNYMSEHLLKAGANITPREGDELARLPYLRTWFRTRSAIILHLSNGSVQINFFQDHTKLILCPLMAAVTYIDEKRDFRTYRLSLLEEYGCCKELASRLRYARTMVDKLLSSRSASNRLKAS
Sequence of EEF2K (human) (O00418 whole entry, looked up): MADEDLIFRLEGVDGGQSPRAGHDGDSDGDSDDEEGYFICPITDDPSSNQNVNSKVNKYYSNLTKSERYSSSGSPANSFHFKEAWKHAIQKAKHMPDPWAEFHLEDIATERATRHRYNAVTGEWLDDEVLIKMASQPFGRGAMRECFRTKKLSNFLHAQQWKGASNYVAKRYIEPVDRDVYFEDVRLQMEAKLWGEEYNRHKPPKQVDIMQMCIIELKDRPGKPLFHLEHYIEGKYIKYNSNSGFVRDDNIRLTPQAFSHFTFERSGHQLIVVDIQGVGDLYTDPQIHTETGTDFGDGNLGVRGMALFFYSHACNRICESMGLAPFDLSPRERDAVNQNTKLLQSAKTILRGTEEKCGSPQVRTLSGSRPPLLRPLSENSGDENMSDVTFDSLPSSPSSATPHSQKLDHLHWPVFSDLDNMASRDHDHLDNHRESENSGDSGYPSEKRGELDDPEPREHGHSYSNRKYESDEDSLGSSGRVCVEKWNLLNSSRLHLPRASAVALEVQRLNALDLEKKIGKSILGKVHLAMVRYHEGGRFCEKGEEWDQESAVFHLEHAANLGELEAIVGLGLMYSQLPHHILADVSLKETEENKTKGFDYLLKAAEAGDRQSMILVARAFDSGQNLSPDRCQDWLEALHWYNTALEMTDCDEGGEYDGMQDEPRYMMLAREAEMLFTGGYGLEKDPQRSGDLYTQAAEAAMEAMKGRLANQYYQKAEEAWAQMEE
Sequence of SRPK1 (human) (Q96SB4 whole entry, looked up): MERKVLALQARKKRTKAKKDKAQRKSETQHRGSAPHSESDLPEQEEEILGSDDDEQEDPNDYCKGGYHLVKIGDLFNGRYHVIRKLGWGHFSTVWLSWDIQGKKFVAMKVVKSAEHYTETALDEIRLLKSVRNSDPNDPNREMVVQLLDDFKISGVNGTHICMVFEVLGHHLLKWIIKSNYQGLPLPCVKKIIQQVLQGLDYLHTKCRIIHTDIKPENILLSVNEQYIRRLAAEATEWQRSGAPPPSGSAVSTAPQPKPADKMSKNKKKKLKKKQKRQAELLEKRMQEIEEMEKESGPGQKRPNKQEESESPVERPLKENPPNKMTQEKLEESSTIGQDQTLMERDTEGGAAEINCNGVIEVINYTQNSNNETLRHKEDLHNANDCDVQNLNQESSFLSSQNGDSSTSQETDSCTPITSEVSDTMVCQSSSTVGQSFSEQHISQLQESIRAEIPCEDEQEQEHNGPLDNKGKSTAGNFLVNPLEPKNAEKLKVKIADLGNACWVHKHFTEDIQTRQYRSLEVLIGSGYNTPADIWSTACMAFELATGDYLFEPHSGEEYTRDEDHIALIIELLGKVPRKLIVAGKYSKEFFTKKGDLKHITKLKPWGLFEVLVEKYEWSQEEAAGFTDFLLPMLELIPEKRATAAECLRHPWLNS

COC(=O)Nc1ccc(-c2nc(N3CCOCC3)c3cnn(C4CCN(C(=O)OC)CC4)c3n2)cc1
per cent of control ([1]; compound 1.0 µM): 106% | per cent of control ([1]; compound 10.0 µM): 104% | per cent of control ([2]; compound 1.0 µM): 95% | per cent of control ([2]; compound 10.0 µM): 88% | per cent of control ([3]; compound 1.0 µM): 93% | per cent of control ([3]; compound 10.0 µM): 106% | per cent of control ([4]; compound 1.0 µM): 96% | per cent of control ([4]; compound 10.0 µM): 92% | per cent of control ([5]; compound 1.0 µM): 93% | per cent of control ([5]; compound 10.0 µM): 91% | per cent of control ([6]; compound 1.0 µM): 94% | per cent of control ([6]; compound 10.0 µM): 98% | per cent of control ([7]; compound 1.0 µM): 109% | per cent of control ([7]; compound 10.0 µM): 108% | per cent of control ([8]; compound 1.0 µM): 109% | per cent of control ([8]; compound 10.0 µM): 102% | per cent of control ([9]; compound 1.0 µM): 99% | per cent of control ([9]; compound 10.0 µM): 90% | per cent of control ([10]; compound 1.0 µM): 100% | per cent of control ([10]; compound 10.0 µM): 91% | per cent of control ([11]; compound 1.0 µM): 94% | per cent of control ([11]; compound 10.0 µM): 93% | per cent of control ([12]; compound 1.0 µM): 82% | per cent of control ([12]; compound 10.0 µM): 79% | per cent of control ([13]; compound 1.0 µM): 102% | per cent of control ([13]; compound 10.0 µM): 95% | per cent of control ([14]; compound 1.0 µM): 100% | per cent of control ([14]; compound 10.0 µM): 102% | per cent of control ([15]; compound 1.0 µM): 82% | per cent of control ([15]; compound 10.0 µM): 81% | per cent of control ([16]; compound 1.0 µM): 97% | per cent of control ([16]; compound 10.0 µM): 106% | per cent of control ([17]; compound 1.0 µM): 99% | per cent of control ([17]; compound 10.0 µM): 92% | per cent of control ([18]; compound 1.0 µM): 92% | per cent of control ([18]; compound 10.0 µM): 97% | per cent of control ([19]; compound 1.0 µM): 108% | per cent of control ([19]; compound 10.0 µM): 93% | per cent of control ([20]; compound 1.0 µM): 93% | per cent of control ([20]; compound 10.0 µM): 97% | per cent of control ([21]; compound 1.0 µM): 92% | per cent of control ([21]; compound 10.0 µM): 107% | per cent of control ([22]; compound 1.0 µM): 109% | per cent of control ([22]; compound 10.0 µM): 113% | per cent of control ([23]; compound 1.0 µM): 98% and 100% | per cent of control ([23]; compound 10.0 µM): 80% and 101% | per cent of control ([24]; compound 1.0 µM): 98% | per cent of control ([24]; compound 10.0 µM): 91% | per cent of control ([25]; compound 1.0 µM): 105% | per cent of control ([25]; compound 10.0 µM): 88% | per cent of control ([26]; compound 1.0 µM): 95% | per cent of control ([26]; compound 10.0 µM): 109% | per cent of control ([27]; compound 1.0 µM): 92% | per cent of control ([27]; compound 10.0 µM): 89% | per cent of control ([28]; compound 1.0 µM): 117% | per cent of control ([28]; compound 10.0 µM): 103% | per cent of control ([29]; compound 1.0 µM): 113% | per cent of control ([29]; compound 10.0 µM): 106% | per cent of control ([30]; compound 1.0 µM): 90% | per cent of control ([30]; compound 10.0 µM): 90% | per cent of control ([31]; compound 1.0 µM): 81% | per cent of control ([31]; compound 10.0 µM): 75% | per cent of control ([32]; compound 1.0 µM): 100% | per cent of control ([32]; compound 10.0 µM): 88% | per cent of control ([33]; compound 1.0 µM): 83% | per cent of control ([33]; compound 10.0 µM): 86% | per cent of control ([34]; compound 1.0 µM): 90% | per cent of control ([34]; compound 10.0 µM): 92%
